Experimental data as given in patent EP2698384A1, “Detection of synthetic cannabinoids” (priority 2012, dated 2014).

Assays:
Assay type in all cases: binding, sheep
Details in all cases: Cross-reactants at 100 ng/ml; 1000ng/ml; single level of cross reactants
[1] = test system: Antibody to Immunogen III
Procedure: (§1) The wells of an enhanced binding 96 well polystyrene microtiter plate were coated with IgG fraction of antiserum raised to Immunogen VI, diluted in 10mM Tris, pH8.5 (125µl/well). The appropriate antibody coating dilution was determined using standard ELISA checkerboard techniques. The plate was incubated overnight at 4°C, washed 4 times over 10 minutes with Tris buffered saline containing Tween 20 (TBST) and tapped dry. Standard solutions of RCS-4 were prepared in TBST at 0, 0.3125, 0.625, 1.25, 2.5, 5, 10 and 20ng/ml, and 50µl of each was added to the appropriate wells (see figure 1). 75µl of conjugate (appropriate hapten-HRP) diluted in Tris buffer (pH 7.2) containing EDTA, D-mannitol, sucrose, thimerosal and BSA, was added to each of the wells. The appropriate dilution of conjugate was also determined using standard ELISA checkerboard techniques. The plate was incubated at 25°C for 1 hour. Excess unbound conjugate was removed by washing 6 times over a 10 minute period with TBST. 125µl oftetramethylbenzidine (TMB) substrate solution was added to each well of the plate that was then incubated for 20 minutes in the dark at room temperature. The reaction was terminated by addition of 125µl 0.2M H2SO4 to each well. The absorbance was then measured at 450nm using a microtiter plate reader. The data are inputted to a computer program called 'KC Junior'. It is a 4 parameter fit curve and allow the calculatation of concentrations between the standard runs. This program is used to calculate the IC50s by dividing the 0ng/ml OD value by 2 and obtaining the concentration value from the curve for this OD.
In a similar manner to that described above, the wells of a 96-well microtiter plate were coated with the IgG fraction of the antiserum raised to Immunogens I, II or III. Standard solutions (JWH-250 for Immunogen III) were applied at 0, 0.625, 1.25, 2.5, 5, 10, 20 and 40ng/ml and conjugate was employed as detection reagent.
(§2) The data set our in Tables 3 and 4 are generated using antibodies raised against the indicated Immunogens in a competitive binding assay with the indicated tracers, using the indicated standards: Table 2
(§3) In order to determine the specificity of the competitive ELISAs, standard solutions of a range of structurally similar synthetic cannabinoids and their metabolites were prepared in TBST. Using the calibration curves generated and employing a single level of cross reactants, these were used to determine the cross-reactivity of each immunoassay with these substances. Table 4: Cross reactivity of the competitive ELISAs for synthetic cannabinoids and their metabolites

[2] = test system: Antibody to Immunogen V
Procedure: as §1
In a similar manner to that described above, the wells of a 96-well microtiter plate were coated with the IgG fraction of the antiserum raised to Immunogens IV, V, VII or VIII. Standard solutions (RCS-8 for Immunogen V) were prepared in TBST at 0, 1.25, 2.5, 5, 10, 20, 40 and 80ng/ml and conjugate was employed as detection reagent.
as §2, §3

[3] = test system: Antibody to Immunogen VI
Procedure: as §1, §2, §3

Structure (SMILES) | %B/B0 [1] [%] | %B/B0 [2] [%] | %B/B0 [3] [%]
CCCCCn1c(O)c(C(=O)c2cccc3ccccc23)c2ccccc21 | 97.61 | 98.82 | 101.92
CCCCn1c(O)c(C(=O)c2cccc3ccccc23)c2ccccc21 | 97.53 | 91.80 | 89.23
CCCCCn1cc(C(=O)c2cccc3ccccc23)c2c(O)cccc21 | 82.22 | 83.42 | 92.00
CCCCn1cc(C(=O)c2cccc3ccccc23)c2c(O)cccc21 | 84.57 | 76.09 | 84.39
CCCCCn1cc(C(=O)c2cccc3ccccc23)c2cc(O)ccc21 | 96.24 | 88.70 | 95.94
CCCCn1cc(C(=O)c2cccc3ccccc23)c2cc(O)ccc21 | 95.65 | 82.86 | 85.96
CCCCCn1cc(C(=O)c2cccc3ccccc23)c2ccc(O)cc21 | 92.91 | 75.65 | 91.26
CCCCn1cc(C(=O)c2cccc3ccccc23)c2ccc(O)cc21 | 94.60 | 68.70 | 84.50
CCCCCn1cc(C(=O)c2cccc3ccccc23)c2cccc(O)c21 | 97.89 | 80.99 | 91.71
CCCCn1cc(C(=O)c2cccc3ccccc23)c2cccc(O)c21 | 95.81 | 73.04 | 81.62
CCCCCCCC(C)(C)c1ccc(C2CCCC(O)C2)c(O)c1 (stereo not drawn) | 95.39 | 86.41 | 100.84
CCCCCCn1cc(C(=O)c2cccc3ccccc23)c2cc(O)ccc21 | 95.38 | 79.13 | 89.29
CCCCn1cc(C(=O)c2ccc(OC)cc2)c2ccccc21 | 62.80 | 76.87 | 4.40
CC(O)CCCn1cc(C(=O)c2cccc3ccccc23)c2ccccc21 (racemic) | 86.69 | 75.59 | 76.16
CCCCCCC(C)(C)c1ccc([C@@H]2C[C@H](O)CC[C@H]2CCCO)c(O)c1 (racemic) [((+-)-CP 55,940)] | 93.49 | 80.97 | 98.86
CCCCCCC(C)(C)c1ccc([C@H]2CCC[C@@H](O)C2)c(O)c1 (racemic) [CP-49,497-C7 ((+-) CP 47,497)] | 96.91 | 69.53 | 95.90
CC(F)CCCn1cc(C(=O)c2cccc3ccccc23)c2ccccc21 (single isomer, unassigned) [AM-2201 N-(4-fluoropentyl) isomer] | 68.00 | 52.90 | 71.98
CC(C)C(C)n1cc(C(=O)c2cccc3ccccc23)c2ccccc21 (single isomer, unassigned) [JWH 018 N-(1,2-dimethylpropyl) isomer] | 90.17 | 74.41 | 83.71

Structure (SMILES) | %B/B0 [1] [%] | %B/B0 [2] [%] | %B/B0 [3] [%]
CCCC(C)n1cc(C(=O)c2cccc3ccccc23)c2ccccc21 (single isomer, unassigned) [JWH-018 N-(1-methylbutyl) isomer] | 87.31 | 76.65 | 85.57
CCC(C)Cn1cc(C(=O)c2cccc3ccccc23)c2ccccc21 (single isomer, unassigned) [JWH-018 N-(2-methylbutyl) isomer (JWH-073 2-methylbutyl homologue)] | 92.91 | 69.13 | 80.10
O=C(O)Cc1c[nH]c2ccc(O)cc12 [5-hydroxyindole-3-acetic acid (5-HIAA), 5-hydroxyindole-3-acetic acid] | 90.54 | 92.46 | 95.75
OCCc1c[nH]c2ccc(O)cc12 [5-hydroxytryptophol] | 85.39 | 90.61 | 95.67
CS(=O)(=O)O.Cc1c(C(=O)c2cccc3ccccc23)c2cccc3c2n1[C@H](CN1CCOCC1)CO3 [(+)WIN 55212-2 (mesylate)] | 93.28 | 68.43 | 91.65
CN1CCCCC1Cn1cc(C(=O)c2ccccc2I)c2ccccc21 (stereo not drawn) [AM-223] | 95.28 | 54.35 | 79.16
COc1ccc(C(=O)c2c(C)n(CCN3CCOCC3)c3cc(I)ccc23)cc1 [AM-630 (other name 6-Iodopravadoline), 6-Iodopravadoline] | 91.34 | 71.78 | 39.25
O=C(c1cccc(I)c1)c1cn(CCCCCF)c2ccccc12 [AM-694 3-iodo isomer] | 67.86 | 63.18 | 44.38
O=C(c1ccc(I)cc1)c1cn(CCCCCF)c2ccccc12 [AM-694 4-iodo isomer] | 65.53 | 77.65 | 16.99
O=C(c1ccccc1I)c1cn(CCCCCF)c2ccccc12 [AM-694] | 72.80 | 64.61 | 70.77
CN1CCCCC1Cn1cc(C(=O)c2cccc3ccccc23)c2ccccc21 (stereo not drawn) [AM-1220] | 99.70 | 63.74 | 81.44
CN1CCCCC1Cn1cc(C(=O)c2cc([N+](=O)[O-])ccc2I)c2ccccc21 (stereo not drawn) [AM-1241] | 102.11 | 71.68 | 99.43
O=C(c1cccc2ccccc12)c1cn(CCCC(O)CF)c2ccccc12 (stereo not drawn) [AM-2201 N-(4-hydroxypentyl) metabolite] | 68.76 | 50.40 | 77.68
O=C(c1cccc2ccccc12)c1cn(CCCCCF)c2ccccc12 [AM-2201] | 67.95 | 76.07 | 76.96
CCCCCCC(C)(C)C1=CC(=O)C(C2CCCC(O)C2)=CC1=O (stereo not drawn) [CP-47,497-para-quinone analogue] | 96.58 | 72.98 | 94.38
CCCCCc1cc(O)c2c(c1)OC(C)(C)c1ccc(C)cc1-2 [Cannabinol] | 97.02 | 64.54 | 95.90
CCCCCc1cc(O)c2c(c1)OC(C)(C)[C@@H]1CCC(C)=C[C@@H]21 [Delta 9 THC] | 91.21 | 65.28 | 94.84
CCCCCCC(C)(C)c1cc(O)c2c(c1)OC(C)(C)[C@@H]1CC=C(CO)C[C@@H]21 [HU-210] | 91.13 | 67.43 | 90.89
